Data: patent US20200254041A1, “RAPID ONSET AND EXTENDED ACTION PLANT-BASED AND SYNTHETIC CANNABINOID FORMULATIONS” (RECEPTOR HOLDINGS, INC., priority 2017, published 2020)
Converted amounts (≈) assume the structure as drawn.

Columns and labels:
[1] = cited from earlier work
study participants [2] = experiment: Onset and duration of action of orally administered cannabis/SNAC formulation at a low SNAC dose (100 mg); participant-reported euphoria; format: in vivo, human; conditions: 100 mg SNAC in oral cannabis formulation
Procedure: This study was designed to assess the utility of SNAC in enabling a rapid-acting oral form of cannabis at a low dose.
Selection of Participants. Three study participants were recruited to ingest cannabis formulations and record the onset, duration, and intensity of cannabis-induced euphoria and/or dysphoria.
(§1) Formulations. The selected cannabis concentrate is commercially available and was provided to participants in an ethanol solution. The concentrate contains 8 mg THC per dose. It was selected because it contains a high percentage of THC, which provides a noticeable effect on user-reported “euphoria”.
(§2) Methods. For the Control experiment, each participant mixed the cannabis concentrate with 15 ml (one tablespoon) of aqueous ethanol, and immediately swallowed the mixture.
(§3) For both the Control experiment and the Test experiment, each participant recorded the time of dose administration, the time of onset of euphoria and/or dysphoria, and the observed level of euphoria and/or dysphoria in fifteen minute intervals for five hours following administration of the cannabis dose. Euphoria and dysphoria were reported using a scale value, in a range from 1-10.

study participants [3] = experiment: Onset and duration of action of orally administered cannabis/SNAC formulation (200 mg SNAC) vs cannabis-only control; participant-reported euphoria/dysphoria; format: in vivo, human; conditions: 200 mg SNAC in oral cannabis formulation
Procedure: This study was designed to assess the utility of SNAC in enabling a rapid-acting oral form of cannabis.
Selection of Participants. Six study participants were recruited to ingest cannabis formulations and record the onset, duration, and intensity of cannabis-induced euphoria and/or dysphoria.
as §1, §2, §3

[4] = Cannabis/SNAC oral rat pharmacokinetic (PK) study; format: in vivo; conditions: rats; for AUC compared to the cannabis alone group: 25 mg/kg cannabis extract; for AUC0-Tlast increase over the cannabis alone group / Cmax increase over the cannabis alone group: 500 mg/kg SNAC and 50 mg/kg cannabis extract vs 25 mg/kg cannabis alone
Procedure: Summary of cannabis/SNAC oral rat pharmacokinetic (PK) study.
Methods. Animals were dosed on Day 1 and a series of blood samples were collected over a period of 4 hours post dose for pharmacokinetic evaluation. Animals were euthanized following collection of their last blood sample.

[5] = cited from earlier work; remark: listed apart in the source
[6] = 25 mg/kg cannabis extract with SNAC at either 250 or 500 mg/kg

## C=CCc1ccc(O)c(OC)c1 [Eugenol]
[1]
  water solubility (in words): low water solubility

## COc1ccc([C@@H]2CC(=O)c3c(O)cc(O[C@@H]4O[C@H](CO[C@@H]5O[C@@H](C)[C@H](O)[C@@H](O)[C@H]5O)[C@@H](O)[C@H](O)[C@H]4O)cc3O2)cc1O [Hesperidin]
[1]
  water solubility (in words): low water solubility

## O=C([O-])CCCCCCCNC(=O)c1ccccc1O.[Na+] [SNAC, sodium N-[8-(2-hydroxybenzoyl)amino] caprylate]
Study participants [2]
  effect of the absorption enhancer on the duration of action of cannabis: no effect on the duration of action of cannabis
Study participants [3]
  effect of the absorption enhancer on the duration of action of cannabis: no effect on the duration of action of cannabis

## C[C@@H]1O[C@@H](Oc2c(-c3ccc(O)c(O)c3)oc3cc(O)cc(O)c3c2=O)[C@H](O)[C@H](O)[C@H]1O [Quercitrin]
[1]
  water solubility (in words): low water solubility

## COc1cc(/C=C/C(=O)CC(=O)/C=C/c2ccc(O)c(OC)c2)ccc1O [Curcumin]
[1]
  aqueous solubility: < 100 µg/mL

## CC[C@]1(O)C[C@@H]2CN(CCc3c([nH]c4ccccc34)[C@@](C(=O)OC)(c3cc4c(cc3OC)N(C)[C@H]3[C@@](O)(C(=O)OC)[C@H](OC(C)=O)[C@]5(CC)C=CCN6CC[C@]43[C@@H]65)C2)C1 [Vinblastine]
[1]
  water solubility (in words): low water solubility

## C[C@@H]1O[C@@H](OC[C@H]2O[C@@H](Oc3c(-c4ccc(O)c(O)c4)oc4cc(O)cc(O)c4c3=O)[C@H](O)[C@@H](O)[C@@H]2O)[C@H](O)[C@H](O)[C@H]1O [Rutin]
[1]
  water solubility (in words): low water solubility

## Oc1ccc(C=Cc2cc(O)cc(O)c2)cc1 [Resveratrol]
[1]
  aqueous solubility: 30 µg/mL (≈ 131 µM)

## COC(=O)[C@H]1[C@H]2C[C@@H]3c4[nH]c5cc(OC)ccc5c4CCN3C[C@H]2C[C@@H](OC(=O)c2cc(OC)c(OC)c(OC)c2)[C@@H]1OC [Reserpine]
[1]
  water solubility (in words): low water solubility

## C=CC(C)(O)CCC=C(C)C (stereo not shown) [Linalool]
[1]
  water solubility (in words): low water solubility

## CCCCCc1cc(O)c2c(c1)OC(C)(C)[C@@H]1CCC(C)=C[C@@H]21 [THC, delta-9-tetrahydrocannabinol]
[4]; [6]
  Cmax increase over cannabis alone: 1.4 fold
[4]; 250 mg/kg SNAC group
  AUC compared to the cannabis alone group: 1.1 fold
[4]; 500 mg/kg SNAC group
  AUC compared to the cannabis alone group: lower
[4]; both SNAC groups (250 and 500 mg/kg)
  AUC compared to the cannabis alone group: comparable
[4]
  AUC0-Tlast increase over the cannabis alone group: 6.3 fold
  Cmax increase over the cannabis alone group: 6.9 fold
[5]; after oral administration
  duration of action / effects: 4 to 6 h
  onset of action: up to 1.5 hours
  peak effect at: 2 to 4 h
[5]; after single oral doses
  absorbed: 90-95%
[5]; oral, first pass hepatic metabolism and poor aqueous solubility
  administered dose that reaches the systemic circulation: 4-20%

## C=C(C)[C@@H]1CCC(C)=C[C@H]1c1c(O)cc(CCCCC)cc1O [CBD, cannabidiol]
[1]
  water solubility (in words): very low or no solubility in water
[4]; 25 mg/kg cannabis extract with SNAC 250 mg/kg
  Cmax increase over cannabis alone: 2.9 fold
[4]; 25 mg/kg cannabis extract with SNAC 500 mg/kg
  Cmax increase over cannabis alone: 2.8 fold
[4]; [6]
  Cmax increase over cannabis alone: 2.8 fold
[4]
  AUC0-Tlast increase over the cannabis alone group: 22.1 fold
  Cmax increase over the cannabis alone group: 14.2 fold

## C[C@@H]1O[C@@H](O[C@H]2[C@H](Oc3cc(O)c4c(c3)O[C@H](c3ccc(O)cc3)CC4=O)O[C@H](CO)[C@@H](O)[C@@H]2O)[C@H](O)[C@H](O)[C@H]1O [Naringin]
[1]
  water solubility (in words): low water solubility

## COc1cc(CNC(=O)CCCC/C=C/C(C)C)ccc1O [Capsaicin]
[1]
  water solubility (in words): low water solubility

## Cc1cc(O)c2c(=O)c3c(O)cc(O)c4c5c(O)cc(O)c6c(=O)c7c(O)cc(C)c8c1c2c(c34)c(c78)c65 [Hypericin]
[1]
  water solubility (in words): insoluble in water
